Data: patent publication US9963462B2 (priority 2015, dated 2018)

Tests used:
[1] = molecular target: SNAP-hSPR (sepiapterin reductase, SPR) (Homo sapiens, UniProt P35270); test: biochemical; assay type: binding; details: terbium labelled SNAP-hSPR / SSZ labelled SNAP-EGFP; read-out: hTR-FRET IC50
[2] = tested on: BH4 production in human peripheral blood mononuclear cells (PBMCs); test: hPBMC assay, inhibition of BH4 production by LC-MS (anti-CD3/anti-CD28 stimulated); assay type: cell-based; details: PBMC, read-out: hPBMC IC50
Description: hPBMC Assay: PBMCs were either purchased or isolated from fresh human blood and used either as a fresh preparation or frozen for later use. The assay system was prepared by pre-treating the assay plates overnight with a solution containing anti-human CD3 antibody. Human PBMCs were suspended in assay medium and plated into the assay plates at a density of 1-4×10^5 cells per well. The desired concentration of the test compound was added to each well. A solution of human anti-CD28 antibody was also added to each well. Plates were incubated for 12-48 hours at 37° C. and 5% CO2. Assay plates were centrifuged for 5-15 minutes at 1-3000 RMP and supernatants were removed. The cells were lysed, sealed and used directly or frozen at −80° C. LC-MS was used to quantify the amount of inhibition of BH4 production.
PBMCs were either purchased or isolated from fresh human blood and used either as a fresh preparation or frozen for later use. The assay system was prepared by pre-treating the assay plates overnight with a solution containing anti-human CD3 antibody. Human PBMCs were suspended in assay medium and plated into the assay plates at a density of 1-4×10^5 cells per well. The desired concentration of the test compound was added to each well. A solution of human anti-CD28 antibody was also added to each well. Plates are incubated for 12-48 hours at 37° C. and 5% CO2. Assay plates were centrifuged for 5-15 minutes at 1-3000 RMP and supernatants were removed. The cells were lysed, sealed and used directly or frozen at −80° C.

[3] = tested on: BH4 levels in SK-N-BE (2) cells; test: SKN-N-BE (2) cellular assay, BH4 levels by LC-MS; assay type: cell-based; details: Homo sapiens, SKNBE2, read-out: SK-N-BE(2) IC50, SK-N-BE (2) cells, BH4 levels by LC-MS

SNAP-hSPR (sepiapterin reductase, SPR), sequence (P35270 whole entry): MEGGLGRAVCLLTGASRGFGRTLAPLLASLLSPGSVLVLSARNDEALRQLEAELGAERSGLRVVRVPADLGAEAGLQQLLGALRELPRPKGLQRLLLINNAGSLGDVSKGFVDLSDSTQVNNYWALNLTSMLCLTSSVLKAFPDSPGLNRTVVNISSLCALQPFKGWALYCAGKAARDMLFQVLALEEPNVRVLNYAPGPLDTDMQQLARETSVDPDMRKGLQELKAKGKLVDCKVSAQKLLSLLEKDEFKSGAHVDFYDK

SMILES | IC50 [1] [µM] | IC50 [2] [µM] | IC50 [3] [µM]
C/C=C(/C1CCN(C(=O)c2cnn(-c3nn4cccc4c(=O)[nH]3)c2C)CC1)C(F)(F)F [Q-1065] | 0.001 | 0.074 | 0.058
Cc1c(C(=O)N2CCC(C(F)(F)F)CC2)cnn1-c1nc2c(c(=O)[nH]1)CCC2 [Q-0418] | 0.002 | 0.032 | 0.05
Cc1c(C(=O)N2CCC(CC#N)CC2)cnn1-c1nn2cccc2c(=O)[nH]1 [Q-0825] | 0.002 | 0.15 | 0.4
O=C(c1cnn(-c2nc3c(c(=O)[nH]2)COC3)c1)N1CCC(C(F)(F)F)CC1 [Q-0453, 2-{4-[4-(trifluoromethyL)piperidine-1-carbonyl]-1H-pyrazol-1-yl}-3H,4H,5H,7H-furo[3,4-d]pyrimidin-4-one] | 0.006 | 1.3 | 1.6
Cc1c(C(=O)N2CCN(c3ccc(C(F)(F)F)cn3)CC2)cnn1-c1nn2cccc2c(=O)[nH]1 [Q-0836] | 0.005 | 0.052 | 0.3
Cc1c(C(=O)N2CCC3(CC2)CN(C(=O)OC(C)(C)C)C3)cnn1-c1nn2cccc2c(=O)[nH]1 [Q-0768] | 0.002 | 0.045 | 0.2
CCC(C#N)C1(O)CCN(C(=O)c2cnn(-c3nn4cccc4c(=O)[nH]3)c2C)CC1 (stereo not drawn) [Q-1055] | 0.001 | 0.16 | 0.7
Cc1c(C(=O)N2CCC3OCCCC3C2)cnn1-c1nn2cccc2c(=O)[nH]1 (stereo not drawn) [Q-0917] | 0.003 | 0.1 | 0.7
Cc1c(C(=O)N2C[C@@H]3CCC(F)(F)[C@@H]3C2)cnn1-c1nn2cccc2c(=O)[nH]1 [Q-0896] | 0.001 | 0.049 | 0.3
Cc1c(C(=O)N2CCN(C(=O)OC(C)(C)C)C(C)C2)cnn1-c1nn2cccc2c(=O)[nH]1 (stereo not drawn) [Q-0887] | 0.001 | 0.057 | 0.2
Cc1cc(=O)[nH]c(-n2ncc(C(=O)N3CCc4ccccc4C3)c2C)n1 [Q-0279, 6-methyl-2-[5-methyl-4-(1,2,3,4-tetrahydroisoquinoline-2-carbonyl)-1H-pyrazol-1-yl]-3,4-dihydropyrimidin-4-one] | 0.007 | 2.2 | 1
Cc1c(C(=O)N2CCC(C(F)F)CC2)cnn1-c1nc2c(c(=O)[nH]1)CCC2 [Q-1049] | 0.002 | 0.025 | 0.072
Cc1c(C(=O)N2CCN(C3CC3)CC2)cnn1-c1nc2c(c(=O)[nH]1)CCC2 [Q-1022] | 0.002 | 0.041 | 0.1
Cc1c(C(=O)N2CCC(c3nc(-c4ccccc4)cs3)CC2)cnn1-c1nc2c(c(=O)[nH]1)CCC2 [Q-1056] | 0.003 | 0.055 | 0.016
Cc1c(C(=O)N2CCC3(CC2)CC(F)(F)C3)cnn1-c1nn2cccc2c(=O)[nH]1 [Q-0690] | 0.002 | 0.072 | 0.2
Cc1c(C(=O)N2CC3(CCN(C(=O)OC(C)(C)C)CC3)C2)cnn1-c1nn2cccc2c(=O)[nH]1 [Q-0772] | 0.001 | 0.072 | 0.2
O=C(c1cnn(-c2nn3cccc3c(=O)[nH]2)c1)N1CCC(C(F)(F)F)CC1 [Q-0467, 2-{4-[4-(trifluoromethyl)piperidine-1-carbonyl]-1H-pyrazol-1-yl}-3H,4H-pyrrolo[2,1f][1,2,4]triazin-4-one] | 0.002 | 0.1 | 0.082
C=CCC(C#N)C1CCN(C(=O)c2cnn(-c3nn4cccc4c(=O)[nH]3)c2C)CC1 (stereo not drawn) [Q-0978] | 0.001 | 0.059 | 0.081
CCC1(C#N)CCN(C(=O)c2cnn(-c3nn4cccc4c(=O)[nH]3)c2C)CC1 [Q-0586] | 0.002 | 0.13 | 0.2

SMILES | IC50 [1] [µM] | IC50 [2] [µM] | IC50 [3] [µM]
Cc1c(C(=O)N2CCC(O)(C3CC3)CC2)cnn1-c1nn2cccc2c(=O)[nH]1 [Q-0815] | 0.001 | 0.072 | 0.1
Cc1c(C(=O)N2CCC3(CC2)CC3)nnn1-c1nn2cccc2c(=O)[nH]1 [Q-1005] | 0.001 | 0.1 | 0.3
Cc1c(C(=O)N2CCN(CC(F)(F)F)CC2)cnn1-c1nc2c(c(=O)[nH]1)CCC2 [Q-0737] | 0.005 | 0.037 | 0.2
CCC(C#N)C1(F)CCN(C(=O)c2cnn(-c3nn4cccc4c(=O)[nH]3)c2C)CC1 (stereo not drawn) [Q-1047] | 0.001 | 0.066 | 0.2
Cc1c(C(=O)N2CCN(CC3CCC3)[C@H](C)C2)cnn1-c1nn2cccc2c(=O)[nH]1 [Q-1020] | 0.002 | 0.2 | 0.3
Cc1c(C(=O)N2CCC(C(C)(O)C(F)(F)F)CC2)cnn1-c1nn2cccc2c(=O)[nH]1 (stereo not drawn) [Q-0782] | 0.001 | 0.038 | 0.1
Cc1c(C(=O)N2CCC(C3(C#N)CC3)CC2)cnn1-c1nn2cccc2c(=O)[nH]1 [Q-0817] | 0.001 | 0.044 | 0.2
Cc1c(C(=O)N2CC(F)(c3ccccc3)C2)cnn1-c1nn2cccc2c(=O)[nH]1 [Q-1038] | 0.002 | 0.34 | 0.3
Cc1c(C(=O)N2CC(C)(NC(=O)OC(C)(C)C)C2)cnn1-c1nn2cccc2c(=O)[nH]1 [Q-0867] | 0.002 | 0.07 | 0.4
Cc1c(C(=O)N2CCC(c3nccs3)CC2)cnn1-c1nn2cccc2c(=O)[nH]1 [Q-0969] | 0.001 | 0.16 | 0.2
Cc1c(C(=O)N2CCC3(CC2)CC3(F)F)cnn1-c1nn2cccc2c(=O)[nH]1 [Q-0761] | 0.002 | 0.14 | 0.2
Cc1c(C(=O)N2CC3CC(C2)N3CC(F)(F)F)cnn1-c1nn2cccc2c(=O)[nH]1 [Q-1106] | 0.001 | 0.093 | 
Cc1c(C(=O)N2CCC(n3ccc(C#N)c3)CC2)cnn1-c1nn2cccc2c(=O)[nH]1 [Q-1250] | 0.001 | 0.024 | 
Cc1c(C(=O)N2CCCC(F)(F)CC2)cnn1-c1nn2cccc2c(=O)[nH]1 [Q-1119] | 0.002 | 0.37 | 
Cc1noc(C)c1S(=O)(=O)N1CCN(C(=O)c2cnn(-c3nn4cccc4c(=O)[nH]3)c2C)CC1 [Q-1848] | 0.001 | 0.21 | 
Cc1c(C(=O)N2CCN(c3nc(-c4ccccc4Cl)cs3)CC2)cnn1-c1nn2cccc2c(=O)[nH]1 [Q-1152] | 0.008 | 0.38 | 
Cc1c(C(=O)N2CCC(C3CC3)CC2)nnn1-c1nn2cccc2c(=O)[nH]1 [Q-1184] | 0.002 | 0.037 | 
O=C(c1cn(-c2nn3cccc3c(=O)[nH]2)nn1)N1CCC(C2CC2)CC1 [Q-1222] | 0.001 | 0.025 | 
Cc1c(C(=O)N2CCN(S(=O)(=O)Cc3ccccc3)CC2)cnn1-c1nn2cccc2c(=O)[nH]1 [Q-1591] | 0.003 | 0.11 | 

SMILES | IC50 [1] [µM] | IC50 [2] [µM] | IC50 [3] [µM]
Cc1c(C(=O)N2CCC2c2cncc(F)c2)cnn1-c1nn2cccc2c(=O)[nH]1 (stereo not drawn) [Q-1269] | 0.005 | 0.053 | 
Cc1c(C(=O)N2CCN(c3nc(-c4ccc(Cl)nc4)cs3)CC2)cnn1-c1nn2cccc2c(=O)[nH]1 [Q-1179] | 0.002 | 0.11 | 
Cc1c(C(=O)N2CCN(CC(F)(F)F)c3ccccc32)cnn1-c1nn2cccc2c(=O)[nH]1 [Q-1216] | 0.001 | 0.046 | 
Cc1c(C(=O)N2CCN(S(=O)(=O)c3ccc(C#N)cc3)CC2)cnn1-c1nn2cccc2c(=O)[nH]1 [Q-1838] | 0.001 | 0.17 | 
Cc1c(C(=O)N2CCN(c3ncc(-c4ccc(F)cc4)o3)CC2)cnn1-c1nn2cccc2c(=O)[nH]1 [Q-1202] | 0.005 | 0.26 | 
Cc1c(C(=O)N2CCN(S(=O)(=O)c3cccs3)CC2)cnn1-c1nn2cccc2c(=O)[nH]1 [Q-1821] | 0.001 | 0.13 | 
Cc1c(C(=O)N2CC(N3CCC(F)(F)C3)C2)cnn1-c1nc2cc[nH]c2c(=O)[nH]1 [Q-1255] | 0.1 | 0.58 | 
Cc1c(C(=O)N2CCC(c3nc(-c4ccccn4)cs3)CC2)cnn1-c1nc2c(c(=O)[nH]1)CCC2 [Q-1100] | 0.001 | 0.031 | 
Cc1c(C(=O)N2CCCN(C3CC3)CC2)cnn1-c1nn2cccc2c(=O)[nH]1 [Q-1205] | 0.003 | 0.035 | 
Cc1c(C(=O)N2CCN(c3ncc(-c4ccccc4C(F)(F)F)o3)CC2)cnn1-c1nn2cccc2c(=O)[nH]1 [Q-1171] | 0.01 | 0.14 | 
Cc1c(C(=O)N2CC3CC(C2)N3CC(F)(F)F)nnn1-c1nn2cccc2c(=O)[nH]1 [Q-1225] | 0.001 | 0.029 | 
Cc1c(C(=O)N2CCN(S(=O)(=O)C(F)(F)F)CC2)cnn1-c1nn2cccc2c(=O)[nH]1 [Q-1886] | 0.002 | 0.11 | 
Cc1c(C(=O)N2CCN(c3nc(-c4ccnc(F)c4)cs3)CC2)cnn1-c1nn2cccc2c(=O)[nH]1 [Q-1196] | 0.003 | 0.052 | 
Cc1c(C(=O)N2CCN(c3ncc(-c4ccncc4)o3)CC2)cnn1-c1nn2cccc2c(=O)[nH]1 [Q-1161] | 0.003 | 0.31 | 
Cc1c(C(=O)N2CC3CCCC(C2)C3(O)C(F)(F)F)cnn1-c1nn2cccc2c(=O)[nH]1 (stereo not drawn) [Q-1109] | 0.001 | 0.046 | 
Cc1c(C(=O)N2CCC3(CCCC3=O)CC2)cnn1-c1nn2cccc2c(=O)[nH]1 [Q-1192] | 0.001 | 0.04 | 
O=C(c1cn(-c2nn3cccc3c(=O)[nH]2)nn1)N1CC2CC(C1)N2CC(F)(F)F [Q-1226] | 0.007 | 0.41 | 
C=C(C1CCN(C(=O)c2cnn(-c3nc4c(c(=O)[nH]3)CCC4)c2C)CC1)C(F)(F)F [Q-1096] | 0.001 | 0.018 | 
Cc1c(C(=O)N2CCC2c2ccc(F)cn2)cnn1-c1nn2cccc2c(=O)[nH]1 (stereo not drawn) [Q-1301] | 0.01 | 0.82 | 
